Laboratory results published in the NIST ThermoML archive (doi:10.1021/je7003758).

Assay: xn = mol fraction of the nth substance listed
Details: 298.15 K, Liquid

CCCCCl [1-chlorobutane] + CN1CCCC1=O
mass density [kg/m3]
Details | x2 = 0.1004 | x2 = 0.2002 | x2 = 0.2974 | x2 = 0.4 | x2 = 0.5052 | x2 = 0.6019 | x2 = 0.7039 | x2 = 0.8011 | x2 = 0.9002
100 kPa | 896.6 | 912 | 926.8 | 942.2 | 957.5 | 971.7 | 986.2 | 1000.1 | 1014.3
500 kPa | 896.9 | – | 927.1 | 942.5 | 957.8 | 972 | 986.5 | 1000.4 | 1014.5
600 kPa | – | 912.3 | – | – | – | – | – | – | –
1000 kPa | 897.4 | 912.7 | 927.5 | 942.8 | 958.2 | 972.2 | 986.8 | 1000.6 | 1014.8
1500 kPa | 897.9 | 913.2 | 927.9 | 943.2 | 958.6 | 972.6 | 987.1 | 1000.9 | 1015.1
2000 kPa | 898.4 | 913.6 | 928.4 | 943.6 | 958.9 | 973 | 987.4 | 1001.2 | 1015.3
2400 kPa | – | – | 928.7 | – | – | 973.3 | – | – | –
2500 kPa | 898.9 | 914.1 | – | 944 | 959.3 | – | 987.7 | 1001.6 | 1015.6
3000 kPa | 899.3 | 914.6 | 929.2 | 944.4 | 959.6 | 973.6 | 988 | 1001.8 | 1015.9
3500 kPa | 899.8 | 915 | 929.6 | 944.8 | 960 | 973.9 | 988.4 | 1002.2 | 1016.2
3900 kPa | – | – | – | – | – | 974.2 | – | – | –
4000 kPa | 900.3 | 915.4 | 930 | 945.1 | 960.3 | – | 988.7 | 1002.4 | 1016.5
4400 kPa | 900.7 | – | – | – | – | – | – | – | 1016.7
4500 kPa | – | 915.9 | 930.4 | 945.6 | 960.7 | 974.6 | 989 | 1002.7 | –
4900 kPa | 901.2 | – | – | – | – | – | – | – | –
5000 kPa | – | 916.3 | 930.8 | 945.9 | 961.1 | – | 989.3 | 1003 | 1017
5100 kPa | – | – | – | – | – | 975 | – | – | –
5400 kPa | 901.7 | – | – | – | – | 975.2 | – | – | –
5500 kPa | – | 916.8 | 931.2 | 946.3 | 961.4 | – | 989.6 | 1003.3 | 1017.3
5900 kPa | – | 917.1 | – | – | – | – | – | – | –
6000 kPa | 902.1 | – | 931.7 | 946.7 | 961.8 | 975.6 | 990 | 1003.6 | 1017.6
6500 kPa | 902.6 | 917.6 | 932.1 | 947.1 | 962.2 | 976 | 990.2 | 1003.9 | 1017.8
6900 kPa | 903 | – | 932.5 | – | – | – | – | – | –
7000 kPa | – | 918.1 | – | 947.5 | 962.5 | 976.3 | 990.6 | 1004.2 | 1018.2
7500 kPa | 903.5 | 918.5 | 932.8 | – | 962.9 | 976.6 | 990.9 | 1004.5 | 1018.4
7600 kPa | – | – | – | 948 | – | – | – | – | –
7900 kPa | 903.9 | – | – | – | – | – | 991.1 | – | –
8000 kPa | – | 918.9 | 933.3 | 948.3 | 963.2 | 976.9 | – | 1004.8 | 1018.7
8400 kPa | – | 919.3 | – | – | – | – | – | – | –
8500 kPa | 904.4 | – | 933.6 | 948.6 | 963.6 | 977.2 | 991.5 | 1005.1 | 1019
8900 kPa | – | 919.7 | – | – | – | 977.5 | 991.7 | – | –
9000 kPa | 904.9 | – | 933.9 | 949 | 963.9 | – | – | 1005.4 | 1019.2
9400 kPa | – | – | 934.3 | – | – | – | 992 | – | –
9500 kPa | 905.3 | 920.2 | – | 949.3 | 964.2 | 977.9 | – | 1005.6 | 1019.5
9900 kPa | – | – | 934.8 | – | – | – | – | – | –
10000 kPa | 905.8 | 920.7 | – | 949.8 | 964.7 | 978.3 | 992.4 | – | 1019.8
10100 kPa | – | – | – | – | – | – | – | 1006.1 | –
10400 kPa | – | – | – | 950.1 | – | – | – | – | –
10500 kPa | – | 921.1 | 935.3 | – | 965 | 978.6 | 992.7 | 1006.3 | 1020.1
10600 kPa | 906.4 | – | – | – | – | – | – | – | –
10900 kPa | 906.7 | – | – | 950.4 | – | – | – | – | –
11000 kPa | – | 921.5 | 935.6 | – | 965.4 | 978.9 | 993 | 1006.6 | 1020.4
11400 kPa | – | 921.9 | – | – | – | – | 993.3 | – | –
11500 kPa | 907.2 | – | 936 | 950.8 | 965.7 | 979.3 | – | 1006.8 | 1020.6
11900 kPa | – | – | 936.3 | – | – | – | – | – | –
12000 kPa | 907.6 | 922.4 | – | 951.2 | 966 | 979.6 | 993.6 | 1007.1 | 1020.9
12400 kPa | – | – | – | 951.6 | – | 979.8 | 993.9 | – | –
12500 kPa | 908.1 | 922.8 | 936.8 | – | 966.4 | – | – | 1007.4 | 1021.1
12900 kPa | – | – | – | – | – | – | – | 1007.6 | –
13000 kPa | 908.5 | 923.2 | 937.1 | 951.9 | 966.7 | 980.2 | 994.2 | – | 1021.4
13400 kPa | – | – | – | – | – | – | 994.5 | – | –
13500 kPa | 908.9 | 923.6 | 937.6 | 952.3 | 967 | – | – | 1008 | 1021.7
13600 kPa | – | – | – | – | – | 980.6 | – | – | –
13900 kPa | – | – | – | 952.7 | – | – | – | – | –
14000 kPa | – | – | 937.8 | – | 967.4 | – | 994.8 | 1008.2 | 1022
14100 kPa | 909.5 | 924.1 | – | – | – | 981 | – | – | –
14400 kPa | – | – | – | 953 | 967.7 | – | – | – | 1022.2
14500 kPa | 909.8 | 924.4 | 938.2 | – | – | 981.1 | 995.1 | 1008.5 | –
15000 kPa | 910.2 | 924.7 | 938.6 | 953.4 | 968 | 981.5 | – | 1008.8 | 1022.5
15100 kPa | – | – | – | – | – | – | 995.6 | – | –
15500 kPa | 910.7 | 925.2 | 939 | 953.8 | – | 981.8 | 995.7 | 1009.1 | –
15600 kPa | – | – | – | – | 968.5 | – | – | – | 1022.8
16000 kPa | 911.1 | 925.6 | 939.4 | 954.1 | 968.7 | 982.1 | 996 | 1009.3 | 1023
16400 kPa | – | 926 | 939.7 | – | – | 982.4 | – | – | –
16500 kPa | 911.5 | – | – | 954.4 | 969.1 | – | 996.3 | 1009.6 | 1023.2
16900 kPa | – | – | 940.1 | – | – | – | – | – | –
17000 kPa | 911.9 | 926.3 | – | 954.8 | 969.4 | 982.8 | 996.6 | 1009.9 | 1023.4
17400 kPa | – | – | 940.5 | – | – | – | – | 1010.2 | –
17500 kPa | 912.3 | 926.7 | – | 955.2 | 969.7 | 983 | 996.8 | – | 1023.8
18000 kPa | 912.7 | 927.1 | 940.8 | – | 970.1 | – | 997.2 | 1010.5 | 1024
18100 kPa | – | – | – | 955.6 | – | 983.4 | – | – | –
18500 kPa | 913.1 | 927.6 | – | 955.8 | 970.3 | 983.6 | 997.5 | – | 1024.2
18600 kPa | – | – | 941.4 | – | – | – | – | 1010.8 | –
19000 kPa | 913.6 | 928 | 941.7 | 956.2 | 970.8 | 984 | – | 1011 | 1024.5
19100 kPa | – | – | – | – | – | – | 997.9 | – | –
19400 kPa | 913.9 | – | – | – | – | – | – | – | –
19500 kPa | – | 928.3 | 942.1 | 956.6 | 971 | 984.3 | 998 | 1011.3 | 1024.8
20000 kPa | 914.5 | 928.7 | 942.6 | 957 | 971.4 | 984.6 | 998.4 | 1011.6 | 1025.1
